molecular target: T1, human recombinant P2X7 receptors (Homo sapiens, UniProt Q99572); experiment: Ethidium Accumulation Assay 1 (HEK293 cells, ATP-induced ethidium uptake); assay type: cell-based; details: HEK293 cells expressing human P2X7; 1 mM ATP; sometimes mean of more than one measurement; read-out: Assay 1 (antagonist pIC50 for blocking ATP responses) (converted)
T1 construct: expressed in transfected cells
T1 sequence (Q99572 1-595): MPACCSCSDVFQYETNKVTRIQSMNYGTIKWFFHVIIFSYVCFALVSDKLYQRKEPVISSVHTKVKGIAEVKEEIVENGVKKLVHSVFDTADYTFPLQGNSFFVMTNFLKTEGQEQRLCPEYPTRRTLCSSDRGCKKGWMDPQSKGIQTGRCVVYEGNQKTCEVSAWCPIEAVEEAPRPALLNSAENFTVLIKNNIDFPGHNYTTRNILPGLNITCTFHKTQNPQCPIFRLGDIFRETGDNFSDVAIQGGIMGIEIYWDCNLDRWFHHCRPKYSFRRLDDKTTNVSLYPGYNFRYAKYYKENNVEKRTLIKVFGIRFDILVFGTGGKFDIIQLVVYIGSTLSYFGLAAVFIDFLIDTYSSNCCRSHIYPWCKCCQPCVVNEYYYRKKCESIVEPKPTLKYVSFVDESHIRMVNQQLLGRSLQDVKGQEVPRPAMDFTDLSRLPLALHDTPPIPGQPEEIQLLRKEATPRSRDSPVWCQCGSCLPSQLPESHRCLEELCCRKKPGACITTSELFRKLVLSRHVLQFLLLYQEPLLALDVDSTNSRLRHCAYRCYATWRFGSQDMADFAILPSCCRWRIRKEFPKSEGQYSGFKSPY

Row | Compound | IC50
1 | O=C(c1cccc(C(F)(F)F)c1Cl)N1CCn2c(nnc2-c2ncccn2)C1 [Example 50, 7-{[2-chloro-3-(trifluoromethyl)phenyl]carbonyl}-3-(2-pyrimidinyl)-5,6,7,8-tetrahydro[1,2,4]triazolo [4,3-a]pyrazine] | < 10 nM
2 | O=C(c1cccc(C(F)(F)F)c1Cl)N1CCn2c(nnc2-c2cscn2)C1 [Example 42, 7-{[2-chloro-3-(trifluoromethyl)phenyl]carbonyl}-3-(1,3-thiazol-4-yl)-5,6,7,8-tetrahydro[1,2,4]triazolo[4,3-a]pyrazine] | < 10 nM
3 | O=C(c1ccc(F)cc1Cl)N1CCn2c(nnc2-c2ccc(F)cn2)C1 [Example 40, 7-[(2-chloro-4-fluorophenyl)carbonyl]-3-(5-fluoro-2-pyridinyl)-5,6,7,8-tetrahydro[1,2,4]triazolo [4,3-a]pyrazine] | < 100 nM
4 | O=C(c1cccc(Cl)c1Cl)N1CCn2c(nnc2-c2cccnn2)C1 [Example 57, 7-[(2,3-dichlorophenyl)carbonyl]-3-(3-pyridazinyl)-5,6,7,8-tetrahydro[1,2,4]triazolo [4,3-a]pyrazine] | < 100 nM
5 | O=C(c1cccc(C(F)(F)F)c1Cl)N1CCn2c(nnc2-c2ccc[nH]2)C1 [Example 38, 7-{[2-chloro-3-(trifluoromethyl)phenyl]carbonyl}-3-(1H-pyrrol-2-yl)-5,6,7,8-tetrahydro[1,2,4]triazolo [4,3-a]pyrazine] | < 10 nM
6 | O=C(c1ccc(F)cc1Cl)N1CCn2c(nnc2-c2ncccn2)C1 [Example 47, 7-[(2-chloro-4-fluorophenyl)carbonyl]-3-(2-pyrimidinyl)-5,6,7,8-tetrahydro[1,2,4]triazolo [4,3-a]pyrazine] | < 10 nM

More lines, now with the values ahead:

Row | IC50 | Compound
7 | < 100 nM | O=C(c1ccccc1Cl)N1CCn2c(nnc2-c2ncccc2F)C1 [Example 121, 7-[(2-chlorophenyl)carbonyl]-3-(3-fluoro-2-pyridinyl)-5,6,7,8-tetrahydro[1,2,4]triazolo[4,3-a]pyrazine]
8 | < 100 nM | O=C(c1ccc(F)cc1Cl)N1CCn2c(nnc2-c2cccc(F)c2F)C1 [Example 131, 7-[(2-chloro-4-fluorophenyl)carbonyl]-3-(2,3-difluorophenyl)-5,6,7,8-tetrahydro[1,2,4]triazolo[4,3-a]pyrazine]
9 | < 10 nM | Cn1ccc(-c2nnc3n2CCN(C(=O)c2cccc(Cl)c2Cl)C3)n1 [Example 63, 7-[(2,3-dichlorophenyl)carbonyl]-3-(1-methyl-1H-pyrazol-3-yl)-5,6,7,8-tetrahydro[1,2,4]triazolo [4,3-a]pyrazine]
10 | < 10 nM | O=C(c1cccc(Cl)c1Cl)N1CCn2c(nnc2-c2ccc(F)cc2)C1 [Example 99, 7-[(2,3-dichlorophenyl)carbonyl]-3-(4-fluorophenyl)-5,6,7,8-tetrahydro[1,2,4]triazolo [4,3-a]pyrazine]
11 | < 501 nM | Cc1cc(-c2nnc3n2CCN(C(=O)c2ccc(F)cc2Cl)C3)no1 [Example 71, 7-[(2-chloro-4-fluorophenyl)carbonyl]-3-(5-methyl-3-isoxazolyl)-5,6,7,8-tetrahydro[1,2,4]triazolo [4,3-a]pyrazine]
12 | < 100 nM | O=C(c1ccc(F)cc1F)N1CCn2c(nnc2-c2ccccn2)C1 [Example 78, 7-[(2,4-difluorophenyl)carbonyl]-3-(2-pyridinyl)-5,6,7,8-tetrahydro[1,2,4]triazolo [4,3-a]pyrazine]
13 | < 10 nM | O=C(c1ccccc1Cl)N1CCn2c(nnc2-c2cscn2)C1 [Example 103, 7-[(2-chlorophenyl)carbonyl]-3-(1,3-thiazol-4-yl)-5,6,7,8-tetrahydro[1,2,4]triazolo [4,3-a]pyrazine]
14 | < 100 nM | O=C(c1ccc(Cl)c(F)c1Cl)N1CCn2c(nnc2-c2ccncn2)C1 [Example 112, 7-[(2,4-Dichloro-3-fluorophenyl)carbonyl]-3-(4-pyrimidinyl)-5,6,7,8-tetrahydro[1,2,4]triazolo[4,3-a]pyrazine]

Source: patent publication US8501946B2 (Glaxo Group Limited, priority 2009, dated 2013)
